{"source": "patent US20240033224A1", "about": "“ENTERIC-COATED PELLET, METHOD FOR PREPARING SAME AND FORMULATION COMPRISING SAME” (LIVZON PHARMACEUTICAL GROUP INC., priority 2020, published 2024)", "experiment": "Stability of prazole starting materials in phosphate buffer media at pH 6.8 and 8.0", "description": "Phosphate buffer media at pH 6.8 and 8.0 containing 0.5% w/w of sodium dodecyl sulfate were prepared, added into dissolution cups, with 1000 mL per cup. 0.5 mg of each of ilaprazole, omeprazole magnesium, esomeprazole magnesium, rabeprazole sodium, pantoprazole and lansoprazole was weighed and added into the dissolution cups, stirred at 150 rpm by a paddle method to ensure that the prazole starting materials sank into the media and dissolved therein. 5 mL of each of the samples was collected at 15 min, 30 min, 45 min and 60 min respectively, and added to 20 mL of sodium hydroxide stabilization medium, and then the volume was made up to 50 mL with the mobile phase.\nThe collected sample content in the media was determined according to the determination method of omeprazole magnesium, esomeprazole magnesium, rabeprazole sodium, pantoprazole sodium and lansoprazole in the Chinese Pharmacopoeia (Volume II, 2015 Edition) so as to determine the stability of the prazoles in the media at pH 6.8 and 8.0.", "key": {"[1]": {"conditions": "buffer, 0.25 h, 0.5 µg/mL, pH 6.8"}, "[2]": {"conditions": "buffer, 0.25 h, 0.5 µg/mL, pH 8"}, "[3]": {"conditions": "buffer, 0.5 h, 0.5 µg/mL, pH 6.8"}, "[4]": {"conditions": "buffer, 0.75 h, 0.5 µg/mL, pH 6.8"}, "[5]": {"conditions": "buffer, 0.75 h, 0.5 µg/mL, pH 8"}}}
{"compound": "COc1ccc2[n-]c([S+]([O-])Cc3ncc(C)c(OC)c3C)nc2c1.COc1ccc2[n-]c([S+]([O-])Cc3ncc(C)c(OC)c3C)nc2c1.[Mg+2]", "note": "(stereo not drawn) [Esomeprazole magnesium, esomeprazole magnesium]", "values": [{"measurement": "remaining amount after the degradation", "setting": "medium at pH 6.8, 15 min", "result": 89.6, "unit": "%"}, {"measurement": "remaining amount after the degradation", "setting": "medium at pH 6.8, 30 min", "result": 70.9, "unit": "%"}, {"measurement": "remaining amount after the degradation", "setting": "medium at pH 6.8, 45 min", "result": 56.0, "unit": "%"}, {"measurement": "remaining amount after the degradation", "setting": "medium at pH 6.8, 60 min", "result": 41.4, "unit": "%"}, {"measurement": "remaining amount after the degradation", "setting": "medium at pH 8.0, 15 min", "result": 99.2, "unit": "%"}, {"measurement": "remaining amount after the degradation", "setting": "medium at pH 8.0, 30 min", "result": 98.6, "unit": "%"}, {"measurement": "remaining amount after the degradation", "setting": "medium at pH 8.0, 45 min", "result": 97.6, "unit": "%"}, {"measurement": "remaining amount after the degradation", "setting": "medium at pH 8.0, 60 min", "result": 96.4, "unit": "%"}, {"measurement": "stability in medium at pH 6.8 compared between prazoles", "setting": "pH 6.8", "result": "the best"}]}
{"compound": "COc1ccnc(C[S+]([O-])c2nc3cc(-n4cccc4)ccc3[nH]2)c1C", "note": "(stereo not drawn) [Ilaprazole, ilaprazole]", "values": [{"measurement": "remaining amount after the degradation", "setting": "buffer, 0 h, 0.5 µg/mL, pH 6.8", "result": 100.0, "unit": "%"}, {"measurement": "remaining amount after the degradation", "setting": "buffer, 0 h, 0.5 µg/mL, pH 8", "result": 100.0, "unit": "%"}, {"measurement": "remaining amount after the degradation", "setting": "[1]", "result": 59.7, "unit": "%"}, {"measurement": "remaining amount after the degradation", "setting": "[2]", "result": 94.3, "unit": "%"}, {"measurement": "remaining amount after the degradation", "setting": "[3]", "result": 42.7, "unit": "%"}, {"measurement": "remaining amount after the degradation", "setting": "buffer, 0.5 h, 0.5 µg/mL, pH 8", "result": 91.5, "unit": "%"}, {"measurement": "remaining amount after the degradation", "setting": "[4]", "result": 29.4, "unit": "%"}, {"measurement": "remaining amount after the degradation", "setting": "[5]", "result": 88.6, "unit": "%"}, {"measurement": "remaining amount after the degradation", "setting": "buffer, 1 h, 0.5 µg/mL, pH 6.8", "result": 20.7, "unit": "%"}, {"measurement": "remaining amount after the degradation", "setting": "buffer, 1 h, 0.5 µg/mL, pH 8", "result": 84.6, "unit": "%"}, {"measurement": "stability in medium at pH 6.8 compared between prazoles", "setting": "pH 6.8", "result": "the worst"}]}
{"compound": "Cc1c(OCC(F)(F)F)ccnc1C[S+]([O-])c1nc2ccccc2[nH]1", "note": "(stereo not drawn) [Lansoprazole, lansoprazole]", "values": [{"measurement": "remaining amount after the degradation", "setting": "buffer, 0 h, 0.5 µg/mL, pH 6.8", "result": 100.0, "unit": "%"}, {"measurement": "remaining amount after the degradation", "setting": "buffer, 0 h, 0.5 µg/mL, pH 8", "result": 100.0, "unit": "%"}, {"measurement": "remaining amount after the degradation", "setting": "[1]", "result": 85.7, "unit": "%"}, {"measurement": "remaining amount after the degradation", "setting": "[2]", "result": 98.7, "unit": "%"}, {"measurement": "remaining amount after the degradation", "setting": "[3]", "result": 70.2, "unit": "%"}, {"measurement": "remaining amount after the degradation", "setting": "buffer, 0.5 h, 0.5 µg/mL, pH 8", "result": 96.2, "unit": "%"}, {"measurement": "remaining amount after the degradation", "setting": "[4]", "result": 53.6, "unit": "%"}, {"measurement": "remaining amount after the degradation", "setting": "[5]", "result": 95.3, "unit": "%"}, {"measurement": "remaining amount after the degradation", "setting": "buffer, 1 h, 0.5 µg/mL, pH 6.8", "result": 38.6, "unit": "%"}, {"measurement": "remaining amount after the degradation", "setting": "buffer, 1 h, 0.5 µg/mL, pH 8", "result": 93.5, "unit": "%"}]}
{"compound": "COc1ccc2[n-]c([S+]([O-])Cc3ncc(C)c(OC)c3C)nc2c1.COc1ccc2[n-]c([S+]([O-])Cc3ncc(C)c(OC)c3C)nc2c1.[Mg+2]", "note": "(stereo not drawn) [Omeprazole magnesium, omeprazole magnesium]", "values": [{"measurement": "remaining amount after the degradation", "setting": "buffer, 0 h, pH 6.8", "result": 100.0, "unit": "%"}, {"measurement": "remaining amount after the degradation", "setting": "buffer, 0 h, pH 8", "result": 100.0, "unit": "%"}, {"measurement": "remaining amount after the degradation", "setting": "buffer, 0.25 h, pH 6.8", "result": 81.2, "unit": "%"}, {"measurement": "remaining amount after the degradation", "setting": "buffer, 0.25 h, pH 8", "result": 98.2, "unit": "%"}, {"measurement": "remaining amount after the degradation", "setting": "buffer, 0.5 h, pH 6.8", "result": 66.7, "unit": "%"}, {"measurement": "remaining amount after the degradation", "setting": "buffer, 0.5 h, pH 8", "result": 95.4, "unit": "%"}, {"measurement": "remaining amount after the degradation", "setting": "buffer, 0.75 h, pH 6.8", "result": 47.4, "unit": "%"}, {"measurement": "remaining amount after the degradation", "setting": "buffer, 0.75 h, pH 8", "result": 96.3, "unit": "%"}, {"measurement": "remaining amount after the degradation", "setting": "buffer, 1 h, pH 6.8", "result": 29.2, "unit": "%"}, {"measurement": "remaining amount after the degradation", "setting": "buffer, 1 h, pH 8", "result": 91.2, "unit": "%"}]}
{"compound": "COc1ccnc(C[S+]([O-])c2nc3ccc(OC(F)F)cc3[nH]2)c1OC", "note": "(stereo not drawn) [Pantoprazole sodium, pantoprazole sodium]", "values": [{"measurement": "remaining amount after the degradation", "setting": "buffer, 0 h, 0.5 µg/mL, pH 6.8", "result": 100.0, "unit": "%"}, {"measurement": "remaining amount after the degradation", "setting": "buffer, 0 h, 0.5 µg/mL, pH 8", "result": 100.0, "unit": "%"}, {"measurement": "remaining amount after the degradation", "setting": "[1]", "result": 83.6, "unit": "%"}, {"measurement": "remaining amount after the degradation", "setting": "[2]", "result": 98.6, "unit": "%"}, {"measurement": "remaining amount after the degradation", "setting": "[3]", "result": 65.9, "unit": "%"}, {"measurement": "remaining amount after the degradation", "setting": "buffer, 0.5 h, 0.5 µg/mL, pH 8", "result": 95.9, "unit": "%"}, {"measurement": "remaining amount after the degradation", "setting": "[4]", "result": 50.2, "unit": "%"}, {"measurement": "remaining amount after the degradation", "setting": "[5]", "result": 92.2, "unit": "%"}, {"measurement": "remaining amount after the degradation", "setting": "buffer, 1 h, 0.5 µg/mL, pH 6.8", "result": 35.4, "unit": "%"}, {"measurement": "remaining amount after the degradation", "setting": "buffer, 1 h, 0.5 µg/mL, pH 8", "result": 91.4, "unit": "%"}]}
{"compound": "COCCCOc1ccnc(C[S+]([O-])c2nc3ccccc3[nH]2)c1C", "note": "(stereo not drawn) [Rabeprazole sodium, rabeprazole sodium]", "values": [{"measurement": "remaining amount after the degradation", "setting": "buffer, 0 h, 0.5 µg/mL, pH 6.8", "result": 100.0, "unit": "%"}, {"measurement": "remaining amount after the degradation", "setting": "buffer, 0 h, 0.5 µg/mL, pH 8", "result": 100.0, "unit": "%"}, {"measurement": "remaining amount after the degradation", "setting": "[1]", "result": 70.3, "unit": "%"}, {"measurement": "remaining amount after the degradation", "setting": "[2]", "result": 97.3, "unit": "%"}, {"measurement": "remaining amount after the degradation", "setting": "[3]", "result": 51.5, "unit": "%"}, {"measurement": "remaining amount after the degradation", "setting": "buffer, 0.5 h, 0.5 µg/mL, pH 8", "result": 93.5, "unit": "%"}, {"measurement": "remaining amount after the degradation", "setting": "[4]", "result": 38.6, "unit": "%"}, {"measurement": "remaining amount after the degradation", "setting": "[5]", "result": 90.6, "unit": "%"}, {"measurement": "remaining amount after the degradation", "setting": "buffer, 1 h, 0.5 µg/mL, pH 6.8", "result": 24.6, "unit": "%"}, {"measurement": "remaining amount after the degradation", "setting": "buffer, 1 h, 0.5 µg/mL, pH 8", "result": 88.5, "unit": "%"}]}
